The record followed here is patent publication US20260085034A1, “N-(BENZHYDRYL)CYCLOALKYLCARBOXAMIDE DERIVATIVES AS INHIBITORS OF GLYCOGEN SYNTHASE 1 (GYS1) AND METHODS OF USE THEREOF” (Maze Therapeutics, Inc., priority 2022, published 2026).

Molecules are shown by their SMILES.

Assay [1] deals with T1, recombinant hGYS1/GN1 protein (Homo sapiens, UniProt P13807).
T1 sequence (P13807 1-737): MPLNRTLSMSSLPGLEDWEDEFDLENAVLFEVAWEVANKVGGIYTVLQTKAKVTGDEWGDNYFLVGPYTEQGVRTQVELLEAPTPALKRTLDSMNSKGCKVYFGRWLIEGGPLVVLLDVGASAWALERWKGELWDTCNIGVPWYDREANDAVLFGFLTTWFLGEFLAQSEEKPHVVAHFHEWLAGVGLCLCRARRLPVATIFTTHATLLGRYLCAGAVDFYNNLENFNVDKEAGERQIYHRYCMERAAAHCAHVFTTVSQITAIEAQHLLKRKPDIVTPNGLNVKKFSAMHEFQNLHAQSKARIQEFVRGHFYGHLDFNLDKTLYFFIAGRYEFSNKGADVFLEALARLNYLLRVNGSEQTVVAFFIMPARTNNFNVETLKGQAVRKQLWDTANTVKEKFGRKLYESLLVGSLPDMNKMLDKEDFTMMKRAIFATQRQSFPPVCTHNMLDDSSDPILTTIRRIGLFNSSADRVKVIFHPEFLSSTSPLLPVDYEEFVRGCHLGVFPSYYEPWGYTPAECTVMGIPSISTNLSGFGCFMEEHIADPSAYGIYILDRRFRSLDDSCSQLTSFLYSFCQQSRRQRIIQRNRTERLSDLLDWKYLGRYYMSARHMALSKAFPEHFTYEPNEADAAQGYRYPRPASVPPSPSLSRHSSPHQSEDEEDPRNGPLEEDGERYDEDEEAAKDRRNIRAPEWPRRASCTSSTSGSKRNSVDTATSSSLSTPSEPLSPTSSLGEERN
T1 sequence (P46976 1-350 partner): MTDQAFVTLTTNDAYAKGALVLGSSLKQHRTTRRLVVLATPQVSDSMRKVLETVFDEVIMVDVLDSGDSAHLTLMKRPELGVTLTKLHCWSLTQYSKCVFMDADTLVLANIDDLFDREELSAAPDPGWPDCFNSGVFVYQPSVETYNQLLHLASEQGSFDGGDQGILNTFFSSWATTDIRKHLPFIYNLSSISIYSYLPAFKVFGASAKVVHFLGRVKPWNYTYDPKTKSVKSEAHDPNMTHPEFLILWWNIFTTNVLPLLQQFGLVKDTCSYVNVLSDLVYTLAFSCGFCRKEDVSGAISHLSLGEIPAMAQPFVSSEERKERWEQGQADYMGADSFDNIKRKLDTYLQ
Briefly: GYS1 coupled enzyme assay (PK/LDH). The class given is biochemical. To be noted: geometric mean of at least 2 assay runs; NADH absorbance at 340 nm. The essentials:
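Recombinant hGYS1/GN1 (50 nM) with 0.8 mM UDP-glucose, 0.2% glycogen and 1 mM glucose-6-phosphate in Tris pH 7.5, 2.5% DMSO. UDP formation coupled via PK/LDH to NADH oxidation, read at 340 nm over 10 min. Control-normalized slopes fit to Hill equation; IC50 as geometric mean of ≥2 runs.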

In assay [2] the target is T2, recombinant hGYS2/GN1 protein (Homo sapiens, UniProt P54840).
T2 sequence (P54840 1-703): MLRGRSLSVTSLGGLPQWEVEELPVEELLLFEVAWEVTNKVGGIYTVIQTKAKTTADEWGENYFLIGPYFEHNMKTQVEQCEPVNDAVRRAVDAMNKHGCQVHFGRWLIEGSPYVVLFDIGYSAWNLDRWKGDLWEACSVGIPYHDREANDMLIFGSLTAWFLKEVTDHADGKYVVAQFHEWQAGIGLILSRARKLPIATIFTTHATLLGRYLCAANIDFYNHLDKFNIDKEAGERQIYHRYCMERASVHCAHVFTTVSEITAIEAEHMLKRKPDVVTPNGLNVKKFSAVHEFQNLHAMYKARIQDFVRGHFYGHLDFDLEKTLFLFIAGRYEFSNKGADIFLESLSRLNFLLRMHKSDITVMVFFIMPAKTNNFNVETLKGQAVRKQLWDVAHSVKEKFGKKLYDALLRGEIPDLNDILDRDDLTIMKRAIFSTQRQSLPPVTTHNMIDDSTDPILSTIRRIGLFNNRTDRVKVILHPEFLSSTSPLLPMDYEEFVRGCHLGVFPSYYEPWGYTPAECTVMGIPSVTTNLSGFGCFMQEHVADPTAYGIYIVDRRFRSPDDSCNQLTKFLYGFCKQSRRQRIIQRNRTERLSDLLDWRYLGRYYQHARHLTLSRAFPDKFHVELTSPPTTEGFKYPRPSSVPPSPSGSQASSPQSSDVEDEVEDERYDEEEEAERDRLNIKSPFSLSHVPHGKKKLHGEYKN
T2 sequence (P46976 1-350 partner): T1 sequence (P46976 1-350 partner)
Briefly: GYS2 coupled enzyme assay (PK/LDH). As to conditions: geometric mean of at least 2 assay runs; NADH absorbance at 340 nm. Format: biochemical. From the text: The GYS2 coupled enzyme assay is a kinetic biochemical assay that indirectly quantifies the rate of glycogen synthesis by coupling the conversion of GYS2 substrate UDP-glucose into UDP with downstream enzymatic reactions. UDP is released from UDP-glucose as glucose monomers are linked into the growing glycogen strand by GYS2. The coupled assay then proceeds with pyruvate kinase utilizing UDP and phospho(enol)pyruvate (PEP) to form pyruvate. Lactate dehydrogenase then converts pyruvate and NADH into lactate and NAD+. Oxidation of NADH to NAD+ can be measured continuously with a plate reader by quantifying the decrease in NADH absorbance at 340 nm over time.
Compounds that inhibit the hGYS2 enzyme and, subsequently, the downstream conversion of NADH to NAD+, were tested using assay ready plates (black, clear bottom 384 well plates) in a final DMSO reaction volume of 2.5% DMSO. The Assay Buffer contained 50 mM Tris pH 7.5, 2 mM MgCl2, and 100 mM KCl. Fresh stocks of BSA at a final concentration of 0.02% and TCEP 1 mM were added before splitting buffer into hGYS2 buffer and substrate buffer. To the hGYS2 buffer, rabbit liver glycogen was added at a final concentration of 0.2% glycogen. Glucose-6-Phosphate was added at 2 mM, recombinant hGYS2/GN1 protein was added at 200 nM to the substrate buffer, phosphoenolpyruvate (PEP) was added at 2 mM, UDP-Glucose was added at 2 mM, NADH was added at 0.6 mM, and Pyruvate Kinase/Lactate Dehydrogenase was added at 20 units/mL. The reaction was initiated by mixing hGYS2 buffer and substrate buffer at a 1:1 ratio. Both buffers were plated using a liquid dispensing device with hGYS2 buffer plated first followed by the substrate buffer. Plates were spun briefly to eliminate air bubbles and are immediately read in continuous mode at an absorbance of 340 nm, for 10 time points in one-minute increments, for a total of 10 minutes. The slope from these 10 time points was normalized to the positive and negative control wells. The duplicate % inhibition values are then averaged and fit to a Hill equation for dose response according to the Levenberg-Marquardt algorithm with the Hill equation maximum set to 100 and the minimum set to 0.
The results are shown in Table 5 below, which reports the IC50 of each compound. Unless otherwise specified, IC50 values are reported as the geometric mean of at least 2 assay runs on separate days. As shown in the table below, the compounds of the present invention are not potent inhibitors of human GYS2. […] Each run represents the average of a technical replicate, where each compound was assayed twice in the same plate.

The IC50 is the concentration needed to halve the response being measured. Regarding `CC(C)c1ccc([C@@H](NC(=O)C2CC2)c2ccccc2N)cc1` (single isomer, unassigned) [compound 64], the results for the IC50 in assay [1] and in assay [2] were 404 nM and more than 100000 nM, respectively.

Take `CC(=O)Nc1ccccc1[C@H](NC(=O)C1CC1)c1ccc(C(C)C)cc1` [compound 1, (R)-N-((2-acetamidophenyl)(4-isopropylphenyl)methyl)cyclopropanecarboxamide]: the IC50 in assay [1] was 285 nM; in assay [2] it was more than 100000 nM.

As for `CC(C)c1ccc([C@@H](NC(=O)C2CC2)c2ccccc2Cl)cc1` (single isomer, unassigned) [compound 58], the IC50 in assay [1] is 1380 nM; in assay [2] it was more than 100000 nM.

As to `CC(C)c1ccc([C@@H](NC(=O)C2CC2)c2ccccc2)cc1` [compound 73, (S)-N-((4-isopropylphenyl)(phenyl)methyl)cyclopropanecarboxamide], the results for the IC50 in assay [1] and in assay [2] were 706 nM and more than 100000 nM, respectively.

Regarding `CC(C)c1ccc([C@@H](NC(=O)C2CC2)c2ccccc2N/C(N)=N/C#N)cc1` [compound 19, (R,E)-N-((2-(2-cyanoguanidino)phenyl)(4-isopropylphenyl)methyl)cyclopropanecarboxamide], the IC50 in assay [1] is 304 nM; in assay [2] it was more than 100000 nM.

Turning to `Cc1ccccc1[C@H](NC(=O)C1CC1)c1ccc(C(C)C)cc1` (single isomer, unassigned) [compound 65], the figures for the IC50 in assay [1] and in assay [2] were 514 nM and more than 100000 nM, respectively.

Regarding `CC(C)c1ccc([C@@H](NC(=O)C2CC2)c2ccnn2C)cc1` (single isomer, unassigned) [compound 69], the IC50 in assay [1] is 1820 nM; in assay [2], more than 100000 nM.

Turning to `CC(C)c1ccc([C@@H](NC(=O)C2CC2)c2cccnc2N)cc1` (single isomer, unassigned) [compound 51], the IC50 in assay [1] is 735 nM; in assay [2] it was more than 100000 nM.

Regarding `CC(C)c1ccc([C@@H](NC(=O)C2CC2)c2ccccc2NC(=O)C2COC2)cc1` [compound 60, (R)-N-(2-(cyclopropanecarboxamido(4-isopropylphenyl)methyl)phenyl)oxetane-3-carboxamide], the IC50 in assay [1] was 521 nM; in assay [2], more than 100000 nM.

Take `CCC(=O)Nc1ccccc1[C@H](NC(=O)C1CC1)c1ccc(C(C)C)cc1` [compound 59, (R)-N-((4-isopropylphenyl)(2-propionamidophenyl)methyl)cyclopropanecarboxamide]: the IC50 is 441 nM in assay [1] and more than 100000 nM in assay [2].

`CC(C)c1ccc([C@@H](NC(=O)[C@H]2C[C@@H]2F)c2ccccc2NC(N)=O)cc1F` (single isomer, unassigned) [compound 10]: the IC50 was 194 nM in assay [1] and more than 100000 nM in assay [2].

With `CNC(=O)Nc1ccccc1[C@H](NC(=O)C1CC1)c1ccc(C(C)C)cc1` [compound 53, (R)-N-((4-isopropylphenyl)(2-(3-methylureido)phenyl)methyl)cyclopropanecarboxamide], the figures for the IC50 in assay [1] and in assay [2] were 1230 nM and more than 100000 nM, respectively.

Regarding `CC(=O)Nc1ccccc1[C@H](NC(=O)C1CC1)c1ccc(C(C)C)cn1` [compound 46, (S)-N-((2-acetamidophenyl)(5-isopropylpyridin-2-yl)methyl)cyclopropanecarboxamide], the IC50 is 1420 nM in assay [1] and more than 100000 nM in assay [2].
